# In patent US10065970B2 (Genentech, Inc., priority 2015, dated 2018):
# Where a name gives a salt, the structure may show the parent alone.
# Target: PI3Kα (alpha) (Homo sapiens (Human), UniProt P42336)
# Test: p110α (alpha) PI3K Binding Assay (ADP-Glo lipid kinase reaction)
# Assay type: biochemical
# Conditions: PI3K alpha 0.2 nM, ATP 40 μM, PIP2:3PS 50 μM, 120 min, room temperature; Ki by Morrison Equation; read-out: PI3Kα-(alpha) ATP (Ki) micromolar
# How it was run: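 Enzyme with PIP2:3PS lipid substrate and ATP/MgCl2 in 50 mM HEPES, 50 mM NaCl, 3 mM MgCl2, 0.01% BSA, 1% DMSO, 120 min at room temperature. ADP formed detected by ADP-Glo luminescence. Ki from 10-point dose-response curves via the Morrison equation.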
# Sequence of PI3Kα (alpha) (P42336 whole entry): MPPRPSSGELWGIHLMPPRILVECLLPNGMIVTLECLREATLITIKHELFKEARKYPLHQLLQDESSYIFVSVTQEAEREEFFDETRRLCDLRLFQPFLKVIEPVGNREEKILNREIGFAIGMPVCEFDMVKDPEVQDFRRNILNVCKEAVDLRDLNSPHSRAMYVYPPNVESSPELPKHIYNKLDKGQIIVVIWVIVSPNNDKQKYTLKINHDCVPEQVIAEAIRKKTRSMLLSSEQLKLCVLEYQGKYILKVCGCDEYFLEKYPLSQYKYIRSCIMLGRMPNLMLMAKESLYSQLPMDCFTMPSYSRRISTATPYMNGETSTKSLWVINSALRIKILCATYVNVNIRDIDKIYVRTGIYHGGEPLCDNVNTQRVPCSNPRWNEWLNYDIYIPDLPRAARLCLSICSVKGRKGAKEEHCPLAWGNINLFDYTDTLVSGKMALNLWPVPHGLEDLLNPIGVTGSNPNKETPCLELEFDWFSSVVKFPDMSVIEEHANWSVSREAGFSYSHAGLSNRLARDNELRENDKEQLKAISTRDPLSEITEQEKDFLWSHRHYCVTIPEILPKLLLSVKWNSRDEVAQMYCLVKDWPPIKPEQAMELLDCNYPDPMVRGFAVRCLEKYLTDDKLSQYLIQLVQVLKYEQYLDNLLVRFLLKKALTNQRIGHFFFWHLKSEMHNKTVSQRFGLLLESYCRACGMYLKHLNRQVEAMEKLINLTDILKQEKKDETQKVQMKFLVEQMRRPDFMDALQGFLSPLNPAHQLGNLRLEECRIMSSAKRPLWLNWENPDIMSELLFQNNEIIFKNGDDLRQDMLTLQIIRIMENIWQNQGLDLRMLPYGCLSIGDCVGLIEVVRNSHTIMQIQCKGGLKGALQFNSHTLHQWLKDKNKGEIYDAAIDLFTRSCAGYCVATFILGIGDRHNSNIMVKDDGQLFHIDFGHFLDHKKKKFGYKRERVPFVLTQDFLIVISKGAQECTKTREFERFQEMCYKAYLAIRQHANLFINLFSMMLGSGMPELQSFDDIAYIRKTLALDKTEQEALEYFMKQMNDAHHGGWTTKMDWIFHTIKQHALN
# Sequence of PI3Kα (alpha) (P27986 whole entry partner): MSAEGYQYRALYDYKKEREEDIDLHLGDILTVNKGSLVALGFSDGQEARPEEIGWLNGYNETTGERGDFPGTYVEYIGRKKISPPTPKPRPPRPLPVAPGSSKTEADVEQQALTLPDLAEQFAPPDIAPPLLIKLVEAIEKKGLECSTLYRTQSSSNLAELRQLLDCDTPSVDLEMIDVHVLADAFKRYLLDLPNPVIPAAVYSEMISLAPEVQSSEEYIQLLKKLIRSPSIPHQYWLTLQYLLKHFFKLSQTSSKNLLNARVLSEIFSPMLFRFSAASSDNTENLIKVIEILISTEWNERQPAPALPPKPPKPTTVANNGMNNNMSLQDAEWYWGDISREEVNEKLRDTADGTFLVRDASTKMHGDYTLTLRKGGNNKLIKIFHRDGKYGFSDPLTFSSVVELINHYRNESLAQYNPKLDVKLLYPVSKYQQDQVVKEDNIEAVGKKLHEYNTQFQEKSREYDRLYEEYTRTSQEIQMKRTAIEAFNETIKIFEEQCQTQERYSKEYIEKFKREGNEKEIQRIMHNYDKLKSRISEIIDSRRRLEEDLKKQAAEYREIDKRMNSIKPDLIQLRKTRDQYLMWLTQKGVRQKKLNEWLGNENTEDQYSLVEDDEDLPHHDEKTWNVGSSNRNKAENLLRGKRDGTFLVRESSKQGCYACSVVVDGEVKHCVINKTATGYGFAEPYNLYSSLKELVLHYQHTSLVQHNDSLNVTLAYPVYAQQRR
row,Compound,Ki [nM]
1,"NC(=O)[C@@H](Nc1cc2c3c(c1)nc(-c1ccc4nc(N)nn4c1)n3CCCO2)C1CC1 [Example 201, (S)-2-((1-(2-Amino-[1,2,4]triazolo[1,5-a]pyridin-6-yl)-8,9-dihydro-7H-6-oxa-2,9a-diazabenzo[cd]azulen-4-yl)amino)-2-cyclopropylacetamide]",0.717
2,"COc1ncc(-c2nc3cc(N[C@H](C(N)=O)C4CC4)cc4c3n2CCCO4)cc1Cl [Example 130, (S)-2-((1-(5-Chloro-6-methoxypyridin-3-yl)-8,9-dihydro-7H-6-oxa-2,9a-diazabenzo[cd]azulen-4-yl)amino)-2-cyclopropylacetamide]",7.67
3,"NC(=O)[C@@H](Nc1cc2c3c(c1)nc(-c1ccc(OC(F)F)cc1)n3CCCO2)C1CC1 [Example 150, (S)-2-Cyclopropyl-2-((1-(4-(difluoromethoxy)phenyl)-8,9-dihydro-7H-6-oxa-2,9a-diazabenzo[cd]azulen-4-yl)amino)acetamide]",490
4,"NC(=O)[C@@H](Nc1cc2c3c(c1)nc(N1CCCC(O)C1)n3CCCO2)C1CC1 (stereo partly drawn) [Example 182, (S)-2-Cyclopropyl-2-[1-(3-hydroxypiperidin-1-yl)-8,9-dihydro-7H-6-oxa-2,9a-diazabenzo[cd]azulen-4-ylamino]acetamide]",398
5,"CS(=O)(=O)c1cncc(-c2nc3cc(N[C@H](C(N)=O)C4CC4)cc4c3n2CCCO4)c1 [Example 175, (S)-2-Cyclopropyl-2-((1-(5-(methylsulfonyl)pyridin-3-yl)-8,9-dihydro-7H-6-oxa-2,9a-diazabenzo[cd]azulen-4-yl)amino)acetamide]",26
6,"NC(=O)[C@H](Oc1cc2c3c(c1)nc(-c1ccc(-c4ncn[nH]4)c(F)c1)n3CCCCO2)C1CC1 (single isomer, unassigned) [Example 306]",0.72
7,"COC[C@@H](Oc1cc2c3c(c1)nc(-c1ccc4nc(N)sc4c1)n3CCCCO2)C(N)=O (single isomer, unassigned) [Example 304]",0.127
8,"C[C@H](Nc1cc2c3c(c1)nc(N1CCC[C@@H](CO)C1)n3CCCO2)C(N)=O [Example 139, (S)-2-[1-((R)-3-Hydroxymethylpiperidin-1-yl)-8,9-dihydro-7H-6-oxa-2,9a-diazabenzo[cd]azulen-4-ylamino]propionamide]",288
9,"CC[C@H](Oc1cc2c3c(c1)nc(-c1ccc4oc(N)nc4c1)n3CCCCO2)C(=O)O [Example 313, (S)-2-((1-(2-Aminobenzo[d]oxazol-5-yl)-7,8,9,10-tetrahydro-6-oxa-2,10a-diazacycloocta[cd]inden-4-yl)oxy)butanoic acid]",2.09
10,"C[C@@H](C(N)=O)N(C)c1cc2c3c(c1)nc(-c1ccc4oc(N)nc4c1)n3CCCCO2 [Example 254, (S)-2-((1-(2-Aminobenzo[d]oxazol-5-yl)-7,8,9,10-tetrahydro-6-oxa-2,10a-diazacycloocta[cd]inden-4-yl)(methyl)amino)propanamide]",< 0.02
11,"CC(C)(C(N)=O)n1cc(-c2nc3cc(N[C@H](C(N)=O)C4CC4)cc4c3n2CCCO4)cn1 [Example 181, 2-(4-{4-[((S)-Carbamoylcyclopropylmethyl)amino]-8,9-dihydro-7H-6-oxa-2,9a-diazabenzo[cd]azulen-1-yl}pyrazol-1-yl)isobutyramide formic acid salt]",195
12,"NC(=O)[C@@H](Nc1cc2c3c(c1)nc(-c1ccn4nccc4n1)n3CCCO2)C1CC1 [Example 228, (S)-2-Cyclopropyl-2-((1-(pyrazolo[1,5-a]pyrimidin-5-yl)-8,9-dihydro-7H-6-oxa-2,9a-diazabenzo[cd]azulen-4-yl)amino)acetamide]",2.66
13,"Nc1nc2cc(-c3nc4cc(Br)cc5c4n3CCCO5)ccc2o1 [Example 101, 5-(4-Bromo-8,9-dihydro-7H-6-oxa-2,9a-diazabenzo[cd]azulen-1-yl)benzo [d]oxazol 2-amine]",7.75
14,"C[C@H](Oc1cc2c3c(c1)nc(-c1ccc(-c4nc[nH]n4)c(F)c1)n3CCCCO2)C(N)=O [Example 269, (S)-2-((1-(3-Fluoro-4-(1H-1,2,4-triazol-3-yl)phenyl)-7,8,9,10-tetrahydro-6-oxa-2,10a-diazacycloocta[cd]inden-4-yl)oxy)propanamide]",< 0.02
15,"NC(=O)[C@@H](Nc1cc2c3c(c1)nc(-c1cnn(CCO)c1)n3CCCO2)C1CC1 [Example 211, (S)-2-Cyclopropyl-2-((1-(1-(2-hydroxyethyl)-1H-pyrazol-4-yl)-8,9-dihydro-7H-6-oxa-2,9a-diazabenzo[cd]azulen-4-yl)amino)acetamide]",815
16,"NC(=O)[C@@H]1CCCN1c1cc2c3c(c1)nc(-c1ccc(-c4cc[nH]n4)cc1)n3CCCO2 [Example 229, (S)-1-(1-(4-(1H-Pyrazol-3-yl)phenyl)-8,9-dihydro-7H-6-oxa-2,9a-diazabenzo[cd]azulen-4-yl)pyrrolidine-2-carboxamide]",6.88

row,Compound,Ki [nM]
1,"NC(=O)[C@@H]1CCCN1c1cc2c3c(c1)nc(-c1ccc4[nH]cnc4c1)n3CCCO2 [Example 199, (S)-1-(1-(1H-Benzo[d]imidazol-5-yl)-8,9-dihydro-7H-6-oxa-2,9a-diazabenzo[cd]azulen-4-yl)pyrrolidine-2-carboxamide]",33.2
2,"COC[C@@](C)(C(N)=O)n1cc(-c2cc3c4c(c2)nc(-c2ccc5oc(N)nc5c2)n4CCCO3)cn1 (single isomer, unassigned) [Example 233]",0.119
3,"COc1ccc(-c2nc3cc(N[C@H](C(N)=O)C4CC4)cc4c3n2CCCO4)cc1C(N)=O [Example 164, (S)-5-(4-((2-Amino-1-cyclopropyl-2-oxoethyl)amino)-8,9-dihydro-7H-6-oxa-2,9a-diazabenzo[cd]azulen-1-yl)-2-methoxybenzamide]",160
4,"CCc1cc(-c2nc3cc(N4CCC[C@H]4C(N)=O)cc4c3n2CCCO4)cc2nc(N)oc12 [Example 224, (S)-1-(1-(2-Amino-7-ethylbenzo[d]oxazol-5-yl)-8,9-dihydro-7H-6-oxa-2,9a-diazabenzo[cd]azulen-4-yl)pyrrolidine-2-carb oxamide]",1.62
5,"CCc1cc(-c2nc3cc(N[C@H](C(N)=O)C4CC4)cc4c3n2CCCO4)cc2nc(N)oc12 [Example 225, (S)-2-((1-(2-Amino-7-ethylbenzo[d]oxazol-5-yl)-8,9-dihydro-7H-6-oxa-2,9a-diazabenzo[cd]azulen-4-yl)amino)-2-cyclopropylacetamide]",0.431
6,"NC(=O)[C@@H](C1CC1)n1cc(-c2cc3c4c(c2)nc(-c2ccc5oc(N)nc5c2)n4CCCO3)cn1 (single isomer, unassigned) [Example 231]",0.437
7,"C[C@H](Nc1cc2c3c(c1)nc(-c1ccncn1)n3CCCO2)C(N)=O [Example 109, (S)-2-((1-(pyrimidin-4-yl)-8,9-dihydro-7H-6-oxa-2,9a-diazabenzo[cd]azulen-4-yl)amino)propanamide]",24.3
8,"NC(=O)[C@@H](Nc1cc2c3c(c1)nc(N1Cc4cnc(N)nc4C1)n3CCCO2)C1CC1 [Example 149, (S)-2-((1-(2-Amino-5H-pyrrolo[3,4-d]pyrimidin-6(7H)-yl)-8,9-dihydro-7H-6-oxa-2,9a-diazabenzo[cd]azulen-4-yl)amino)-2-cyclopropylacetamide]",18.2
9,"C[C@H](Oc1cc2c3c(c1)nc(-c1ccc4nc(N)sc4n1)n3CCCCO2)C(N)=O [Example 265, (S)-2-((1-(2-Aminothiazolo[5,4-b]pyridin-5-yl)-7,8,9,10-tetrahydro-6-oxa-2,10a-diazacycloocta[cd]inden-4-yl)oxy)propanamide]",< 0.02
10,"NC(=O)[C@@H](Nc1cc2c3c(c1)nc(-c1ccc(-c4nc[nH]n4)cc1)n3CCCO2)C1CC1 [Example 190, (S)-2-((1-(4-(1H-1,2,4-Triazol-3-yl)phenyl)-8,9-dihydro-7H-6-oxa-2,9a-diazabenzo[cd]azulen-4-yl)amino)-2-cyclopropylacetamide]",0.15
11,"NC(=O)[C@@H](Nc1cc2c3c(c1)nc(-c1ccnc4sccc14)n3CCCO2)C1CC1 [Example 177, (S)-2-Cyclopropyl-2-((1-(thieno[2,3-b]pyridin-4-yl)-8,9-dihydro-7H-6-oxa-2,9a-diazabenzo[cd]azulen-4-yl)amino)acetamide]",234
12,"NC(=O)[C@@H](Nc1cc2c3c(c1)nc(-c1ccnc4[nH]ncc14)n3CCCO2)C1CC1 [Example 169, (S)-2-((1-(1H-Pyrazolo[3,4-b]pyridin-4-yl)-8,9-dihydro-7H-6-oxa-2,9a-diazabenzo[cd]azulen-4-yl)amino)-2-cyclopropylacetamide]",3.92
13,"NC(=O)[C@@H](Nc1cc2c3c(c1)nc(-c1ccc4c(c1)C(=O)NC4)n3CCCO2)C1CC1 [Example 115, (S)-2-Cyclopropyl-2-((1-(3-oxoisoindolin-5-yl)-8,9-dihydro-7H-6-oxa-2,9a-diazabenzo[cd]azulen-4-yl)amino)acetamide]",36.7
14,"C[C@@H](Oc1cc2c3c(c1)nc(-c1cc(F)c4oc(N)nc4c1)n3CCCO2)C(N)=O [Example 263, (R)-2-((1-(2-Amino-7-fluorobenzo[d]oxazol-5-yl)-8,9-dihydro-7H-6-oxa-2,9a-diazabenzo[cd]azulen-4-yl)oxy)propanamide]",0.346
15,"NC(=O)[C@@H](Nc1cc2c3c(c1)nc(-c1ccncc1)n3CCCO2)C1CC1 [Example 165, (S)-2-Cyclopropyl-2-((1-(pyridin-4-yl)-8,9-dihydro-7H-6-oxa-2,9a-diazabenzo[cd]azulen-4-yl)amino)acetamide]",108
16,"Nc1nc2cc(-c3nc4cc(NC5CC(F)(F)C5)cc5c4n3CCCO5)ccc2o1 [Example 192, 1-(2-Aminobenzo[d]oxazol-5-yl)-N-(3,3-difluorocyclobutyl)-8,9-dihydro-7H-6-oxa-2,9a-diazabenzo[cd]azulen-4-amine]",1.64

# Same assay, conditions: read-out: PI3Kα-(alpha) ATP (Ki) micromolar
row,Compound,Ki [nM]
1,"CC[C@@H](C(N)=O)n1cc(-c2cc3c4c(c2)nc(-c2ccc5oc(N)nc5n2)n4CCCO3)cn1 (single isomer, unassigned) [Example 311]",0.031
